Assay results taken from patent US12091425B2 (AMGEN INC., priority 2016, dated 2024).

Key:
[1] = target: T1, Mcl-1/Bim interaction, recombinant human Mcl-1 (171-327) (Homo sapiens, UniProt Q07820); test: Cell free Mcl-1: Bim Affinity Assay (Mcl-1 HTRF); type: binding; details: TR-FRET, 0.1 nM Mcl-1 (171-327), 0.05 nM biotin-Bim (51-76)
T1 construct: made in house
In short: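 TR-FRET competition assay with biotinylated human Bim peptide (residues 51-76); reaction plates incubated overnight before reading. IC50 values came from duplicate data fitted to a four-parameter sigmoidal competition curve.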

[2] = system: OPM-2 human multiple myeloma cell line; test: Cell Viability Assay (OPM-2 10 FBS); type: cell-based; details: OPM-2 cells, 16 h incubation, CellTiter-Glo
In short: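 IC50 from 4-parameter logistic fit of CellTiter-Glo luminescence. 3000 cells/well, 10% FBS medium, serial compound dilutions, 16 h, 37 °C/5% CO2; read 25 min post-reagent.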

T1 sequence (Q07820 171-327): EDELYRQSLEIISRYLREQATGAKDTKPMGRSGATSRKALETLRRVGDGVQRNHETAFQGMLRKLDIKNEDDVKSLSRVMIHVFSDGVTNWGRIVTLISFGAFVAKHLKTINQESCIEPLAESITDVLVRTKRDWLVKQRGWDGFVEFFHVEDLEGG

| SMILES | IC50 [1] | IC50 ([2]; Homo sapiens, OPM-2, 16 h) | IC50 [2] |
| --- | --- | --- | --- |
| CC[C@@H]1CC/C=C/[C@H](OCc2ncco2)[C@@H]2CC[C@H]2CN2C[C@@]3(CCCc4cc(Cl)ccc43)COc3ccc(cc32)C(=O)NS1(=O)=O [Example 986, (1S,3′R,6′R,7′S,8′E,12′R)-6-chloro-12′-ethyl-7′-(1,3-oxazol-2-ylmethoxy)-3,4-dihydro-2H,15′H-spiro[naphthalene-1,22′-[20]oxa[13]thia[1,14]diazatetracyclo[14.7.2.0^3,6.0^19,24]pentacosa [8,16,18,24]tetraen]-15′-one 13′,13′-dioxide] | 0.476 nM | 270 nM |  |
| CC[C@@H]1CC/C=C/[C@H](OCc2nnn(C)n2)[C@@H]2CC[C@H]2CN2C[C@@]3(CCCc4cc(Cl)ccc43)COc3ccc(cc32)C(=O)NS1(=O)=O [Example 987, (1S,3′R,6′R,7′S,8′E,12′R)-6-chloro-12′-ethyl-7′-((2-methyl-2H-tetrazol-5-yl)methoxy)-3,4-dihydro-2H,15′H-spiro[naphthalene-1,22′-[20]oxa[13]thia[1,14]diazatetracyclo[14.7.2.0^3,6.0^19,24]pentacosa [8,16,18,24]tetraen]-15′-one 13′,13′-dioxide] | 0.616 nM | 392 nM |  |
| CC[C@@H]1CC/C=C/[C@H](OCc2nnnn2C)[C@@H]2CC[C@H]2CN2C[C@@]3(CCCc4cc(Cl)ccc43)COc3ccc(cc32)C(=O)NS1(=O)=O [Example 988, (1S,3′R,6′R,7′S,8′E,12′R)-6-chloro-12′-ethyl-7′-((1-methyl-1H-tetrazol-5-yl)methoxy)-3,4-dihydro-2H,15′H-spiro[naphthalene-1,22′-[20]oxa[13]thia[1,14]diazatetracyclo[14.7.2.0^3,6.0^19,24]pentacosa [8,16,18,24]tetraen]-15′-one 13′,13′-dioxide] | 0.536 nM | 1000 nM |  |
| CC[C@@H]1CC/C=C/[C@H](OCCS(=O)(=O)N(C)C)[C@@H]2CC[C@H]2CN2C[C@@]3(CCCc4cc(Cl)ccc43)COc3ccc(cc32)C(=O)NS1(=O)=O [Example 989, 2-(((1S,3′R,6′R,7′S,8′E,12′R)-6-chloro-12′-ethyl-13′,13′-dioxido-15′-oxo-3,4-dihydro-2H-spiro[naphthalene-1,22′-[20]oxa[13]thia[1,14]diazatetracyclo[14.7.2.0^3,6.0^19,24]pentacosa [8,16,18,24]tetraen]-7′-yl)oxy)-N,N-dimethylethanesulfonamide] | 0.851 nM | 330 nM |  |
| CC[C@@H]1CC/C=C/[C@H](OCc2nccs2)[C@@H]2CC[C@H]2CN2C[C@@]3(CCCc4cc(Cl)ccc43)COc3ccc(cc32)C(=O)NS1(=O)=O [Example 990, (1S,3′R,6′R,7′S,8′E,12′R)-6-chloro-12′-ethyl-7′-(1,3-thiazol-2-ylmethoxy)-3,4-dihydro-2H,15′H-spiro[naphthalene-1,22′-[20]oxa[13]thia[1,14]diazatetracyclo[14.7.2.0^3,6.0^19,24]pentacosa [8,16,18,24]tetraen]-15′-one 13′,13′-dioxide] | 3.08 nM | 2230 nM |  |
| CC[C@@H]1CC/C=C/[C@H](OCC(=O)O)[C@@H]2CC[C@H]2CN2C[C@@]3(CCCc4cc(Cl)ccc43)COc3ccc(cc32)C(=O)NS1(=O)=O [Example 992, (((1S,3′R,6′R,7′S,8′E,12′R)-6-chloro-12′-ethyl-13′,13′-dioxido-15′-oxo-3,4-dihydro-2H-spiro[naphthalene-1,22′-[20]oxa[13]thia[1,14]diazatetracyclo[14.7.2.0^3,6.0^19,24]pentacosa [8,16,18,24]tetraen]-7′-yl)oxy)acetic Acid] | 0.103 nM | 2340 nM |  |
| CC[C@@H]1CCCC[C@H](OCC(=O)OC)[C@@H]2CC[C@H]2CN2C[C@@]3(CCCc4cc(Cl)ccc43)COc3ccc(cc32)C(=O)NS1(=O)=O [Example 993, methyl (((1S,3′R,6′R,7′S,12′R)-6-chloro-12′-ethyl-13′,13′-dioxido-15′-oxo-3,4-dihydro-2H-spiro[naphthalene-1,22′-[20]oxa[13]thia[1,14]diazatetracyclo[14.7.2.0^3,6.0^19,24]pentacosa [16,18,24]trien]-7′-yl)oxy)acetate] | 2.01 nM | 373 nM |  |
| CC[C@@H]1CC/C=C/[C@H](OCC(=O)NCCN(C)C)[C@@H]2CC[C@H]2CN2C[C@@]3(CCCc4cc(Cl)ccc43)COc3ccc(cc32)C(=O)NS1(=O)=O [Example 995, 2-(((1S,3′R,6′R,7′S,8′E,12′R)-6-chloro-12′-ethyl-13′,13′-dioxido-15′-oxo-3,4-dihydro-2H-spiro[naphthalene-1,22′-[20]oxa[13]thia[1,14]diazatetracyclo[14.7.2.0^3,6.0^19,24]pentacosa [8,16,18,24]tetraen]-7′-yl)oxy)-N-(2-(dimethylamino)ethyl)acetamide] | 0.872 nM | 1680 nM |  |
| CC[C@@H]1CC/C=C/[C@H](OCC(=O)NCCO)[C@@H]2CC[C@H]2CN2C[C@@]3(CCCc4cc(Cl)ccc43)COc3ccc(cc32)C(=O)NS1(=O)=O [Example 996, 2-(((1S,3′R,6′R,7′S,8′E,12′R)-6-chloro-12′-ethyl-13′,13′-dioxido-15′-oxo-3,4-dihydro-2H-spiro[naphthalene-1,22′-[20]oxa[13]thia[1,14]diazatetracyclo[14.7.2.0^3,6.0^19,24]pentacosa [8,16,18,24]tetraen]-7′-yl)oxy)-N-(2-hydroxyethyl)acetamide] | 0.487 nM | 8190 nM |  |
| CC[C@@H]1CC/C=C/[C@H](OCC(=O)N2CCC2)[C@@H]2CC[C@H]2CN2C[C@@]3(CCCc4cc(Cl)ccc43)COc3ccc(cc32)C(=O)NS1(=O)=O [Example 997, (1S,3′R,6′R,7′S,8′E,12′R)-7′-(2-(1-azetidinyl)-2-oxoethoxy)-6-chloro-12′-ethyl-3,4-dihydro-2H,15′H-spiro[naphthalene-1,22′-[20]oxa[13]thia[1,14]diazatetracyclo[14.7.2.0^3,6.0^19,24]pentacosa [8,16,18,24]tetraen]-15′-one 13′,13′-dioxide] | 0.336 nM | 962 nM |  |
| CC[C@@H]1CC/C=C/[C@H](OCC(=O)NCCOC)[C@@H]2CC[C@H]2CN2C[C@@]3(CCCc4cc(Cl)ccc43)COc3ccc(cc32)C(=O)NS1(=O)=O [Example 1001, 2-(((1S,3′R,6′R,7′S,8′E,12′R)-6-chloro-12′-ethyl-13′,13′-dioxido-15′-oxo-3,4-dihydro-2H-spiro[naphthalene-1,22′-[20]oxa[13]thia[1,14]diazatetracyclo[14.7.2.0^3,6.0^19,24]pentacosa [8,16,18,24]tetraen]-7′-yl)oxy)-N-(2-methoxyethyl)acetamide] | 0.573 nM | 861 nM |  |
| CC[C@@H]1CC/C=C/[C@H](OCC(=O)NCCN2CCOCC2)[C@@H]2CC[C@H]2CN2C[C@@]3(CCCc4cc(Cl)ccc43)COc3ccc(cc32)C(=O)NS1(=O)=O [Example 1002, 2-(((1S,3′R,6′R,7′S,8′E,12′R)-6-chloro-12′-ethyl-13′,13′-dioxido-15′-oxo-3,4-dihydro-2H-spiro[naphthalene-1,22′-[20]oxa[13]thia[1,14]diazatetracyclo[14.7.2.0^3,6.0^19,24]pentacosa [8,16,18,24]tetraen]-7′-yl)oxy)-N-(2-(4-morpholinyl)ethyl)acetamide] | 0.448 nM | 1220 nM |  |
| CCOC(=O)CO[C@H]1/C=C/CC[C@@H](CC)S(=O)(=O)NC(=O)c2ccc3c(c2)N(C[C@@H]2CC[C@H]21)C[C@@]1(CCCc2cc(Cl)ccc21)CO3 [Example 1003, ethyl (((1S,3′R,6′R,7′S,8′E,12′R)-6-chloro-12′-ethyl-13′,13′-dioxido-15′-oxo-3,4-dihydro-2H-spiro[naphthalene-1,22′-[20]oxa[13]thia[1,14]diazatetracyclo[14.7.2.0^3,6.0^19,24]pentacosa [8,16,18,24]tetraen]-7′-yl)oxy)acetate] | 0.844 nM | 273 nM |  |
| CC[C@@H]1CC/C=C/[C@H](O[C@H](C)C(=O)O)[C@@H]2CC[C@H]2CN2C[C@@]3(CCCc4cc(Cl)ccc43)COc3ccc(cc32)C(=O)NS1(=O)=O [Example 1005] | 0.157 nM |  | 4110 nM |
| CC[C@@H]1CC/C=C/[C@H](OCCC(=O)O)[C@@H]2CC[C@H]2CN2C[C@@]3(CCCc4cc(Cl)ccc43)COc3ccc(cc32)C(=O)NS1(=O)=O [Example 1008, 3-(((1S,3′R,6′R,7′S,8′E,12′R)-6-chloro-12′-ethyl-13′,13′-dioxido-15′-oxo-3,4-dihydro-2H-spiro[naphthalene-1,22′-[20]oxa[13]thia[1,14]diazatetracyclo[14.7.2.0^3,6.0^19,24]pentacosa [8,16,18,24]tetraen]-7′-yl)oxy)propanoic Acid] | 0.232 nM | 5590 nM |  |
| CCOC(=O)CCO[C@H]1/C=C/CC[C@@H](CC)S(=O)(=O)NC(=O)c2ccc3c(c2)N(C[C@@H]2CC[C@H]21)C[C@@]1(CCCc2cc(Cl)ccc21)CO3 [Example 1009, ethyl 3-(((1S,3′R,6′R,7′S,8′E,12′R)-6-chloro-12′-ethyl-13′,13′-dioxido-15′-oxo-3,4-dihydro-2H-spiro[naphthalene-1,22′-[20]oxa[13]thia[1,14]diazatetracyclo[14.7.2.0^3,6.0^19,24]pentacosa [8,16,18,24]tetraen]-7′-yl)oxy)propanoate] | 1.23 nM | 702 nM |  |
| CC[C@@H]1CC/C=C/[C@H](OCCC(=O)N(C)C)[C@@H]2CC[C@H]2CN2C[C@@]3(CCCc4cc(Cl)ccc43)COc3ccc(cc32)C(=O)NS1(=O)=O [Example 1010, 3-(((1S,3′R,6′R,7′S,8′E,12′R)-6-chloro-12′-ethyl-13′,13′-dioxido-15′-oxo-3,4-dihydro-2H-spiro[naphthalene-1,22′-[20]oxa[13]thia[1,14]diazatetracyclo[14.7.2.0^3,6.0^19,24]pentacosa [8,16,18,24]tetraen]-7′-yl)oxy)-N,N-dimethylpropanamide] | 0.377 nM | 298 nM |  |
